Measurements reported in patent US11000033B2, “Ketone or oxime compound, and herbicide” (NISSAN CHEMICAL CORPORATION, priority 2014, dated 2021).

Experiments:
Type in all cases: in vivo
Scirpus juncoides = test: Test Example 1: herbicidal activity, application before weed generation in submerged conditions (symbol B); conditions: application herbicide amount 320 g/ha
Outline: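 Greenhouse growth at 25–30 °C lasted 3 weeks after treatment, when each weed was graded 0–5 by herbicidal ratio. Treatment was a diluted emulsion applied to the water surface of 4 cm-submerged alluvial soil on the sowing day.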

Leptochloa chinensis = test: Test Example 3: herbicidal effect by foliage application, Wagner pot (symbol D); conditions: application herbicide amount 320 g/ha
Outline: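 The compound, formulated as an emulsion and diluted with water to a predetermined rate, is applied uniformly to leaves of two-week-old seedlings growing in submerged alluvial soil at 25–30 °C. Rice is included. Each plant is assessed 3 weeks later using defined criteria.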

[1] = test system: directly sowed rice plant; test: Test Example 3: effect on crop by foliage application, Wagner pot (symbol b); conditions: application herbicide amount 320 g/ha
Outline: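 Plants are raised from seed in flooded paddy conditions: water stands 0.1–0.5 cm over alluvial soil, and the pot is kept in a greenhouse at 25–30 °C. Species sown are barnyardgrass (E. crus-galli var. crus-galli), Leptochloa chinensis, Cyperus difformis and rice.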

Alopecurus myosuroides [2] = test: Test Example 4: herbicidal effect by soil treatment (symbol J)
Outline: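 Seeds were sown in sterilized diluvial soil, covered with about 1.5 cm of soil, and the soil surface was sprayed with a water-diluted emulsion of the compound at a predetermined rate. Plants grew in a greenhouse at 25° C. to 30° C.; effects were scored visually 3 weeks after application.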

soybean = test: Test Example 4: effect on crop by soil treatment (symbol d); conditions: for d: soybean, effect grade on crop: 320 g/ha
Outline: (§1)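 Diluvial soil (sterilized) in boxes; seeds placed spot-wise alongside weed species; ~1.5 cm covering soil. Greenhouse, 25–30° C.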

rice = test: Test Example 4: effect on crop by soil treatment (symbol b); conditions: for b: directly sowed rice plant, effect grade on crop: 320 g/ha
Outline: as §1

beet = test: Test Example 4: effect on crop by soil treatment (symbol f); conditions: for f: beet, effect grade on crop: 320 g/ha
Outline: as §1

Digitaria ciliaris = test: Test Example 5: herbicidal effect by foliage application, plastic box (symbol F); conditions: 320 g/ha, 3 weeks after application
Outline: (§2)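 Leaf-applied emulsion, water-diluted to a preset herbicide dose, on two-week-old seedlings raised in a 25° C. to 30° C. greenhouse; injury rated at 3 weeks using earlier criteria.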

[3] = test system: Echinochloa crus-galli var. crus-galli; test: Test Example 5: herbicidal effect by foliage application, plastic box (symbol H); conditions: 320 g/ha, 3 weeks after application
Outline: as §2

Alopecurus myosuroides [4] = test: Test Example 5: herbicidal effect by foliage application, plastic box (symbol J); conditions: 320 g/ha, 3 weeks after application
Outline: as §2

Apera spica-venti = test: Test Example 5: herbicidal effect by foliage application, plastic box (symbol L); conditions: 320 g/ha, 3 weeks after application
Outline: as §2

Chenopodium album = test: Test Example 5: herbicidal effect by foliage application, plastic box (symbol O); conditions: 320 g/ha, 3 weeks after application
Outline: as §2

Galium spurium = test: Test Example 5: herbicidal effect by foliage application, plastic box (symbol Q); conditions: 320 g/ha, 3 weeks after application
Outline: as §2

Veronica persica = test: Test Example 5: herbicidal effect by foliage application, plastic box (symbol R); conditions: 320 g/ha, 3 weeks after application
Outline: as §2

rapeseed = test: Test Example 5: effect on crop by foliage application, plastic box (symbol g); conditions: 320 g/ha, 3 weeks after application
Outline: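 Plants were raised from seed in a greenhouse (25° C. to 30° C.) after sowing in a plastic box of sterilized diluvial soil.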

[5] = application herbicide amount 320 g/ha

SMILES	Herbicidal effect grade, B: Scirpus juncoides (Scirpus juncoides)	herbicidal effect on D (Leptochloa chinensis), grade 0-5 (Leptochloa chinensis)	effect on crop b (directly sowed rice plant), grade 0-5 [1]	J: Alopecurus myosuroides, herbicidal effect grade (Alopecurus myosuroides [2]; 320 g/ha)	d: soybean, effect grade on crop (soybean)	b: directly sowed rice plant, effect grade on crop (rice)	f: beet, effect grade on crop (beet)	F: Digitaria ciliaris, herbicidal effect (criteria 0-5) (Digitaria ciliaris)	H: Echinochloa crus-galli var. crus-galli, herbicidal effect (criteria 0-5) [3]	J: Alopecurus myosuroides, herbicidal effect (criteria 0-5) (Alopecurus myosuroides [4])	L: Apera spica-venti, herbicidal effect (criteria 0-5) (Apera spica-venti)	O: Chenopodium album, herbicidal effect (criteria 0-5) (Chenopodium album)	Q: Galium spurium, herbicidal effect (criteria 0-5) (Galium spurium)	R: Veronica persica, herbicidal effect (criteria 0-5) (Veronica persica)	g: rapeseed, effect on crop (criteria 0-5) (rapeseed)	F: Digitaria ciliaris, herbicidal effect grade (Digitaria ciliaris)	H: Echinochloa crus-galli var. crus-galli, herbicidal effect grade [3]	J: Alopecurus myosuroides, herbicidal effect grade (Alopecurus myosuroides [4])	L: Apera spica-venti, herbicidal effect grade (Apera spica-venti)	O: Chenopodium album, herbicidal effect grade (Chenopodium album)	other results
CON=C(C)CC1CC(OC(=O)OCc2ccccc2)=C(c2c(C)cc(C)cc2C)C1=O (stereo not drawn) [1-145]	5 (Herbicidal ratio of 90% or more (almost completely withered))	5 (Herbicidal ratio of 90% or more (almost completely withered))	5 (Herbicidal ratio of 90% or more (almost completely withered))	5 (Herbicidal ratio of 90% or more (almost completely withered))	0 (Herbicidal ratio of 5% or lower (almost no effect))	5 (Herbicidal ratio of 90% or more (almost completely withered))	0 (Herbicidal ratio of 5% or lower (almost no effect))	5 (Herbicidal ratio of 90% or more (almost completely withered))	5 (Herbicidal ratio of 90% or more (almost completely withered))	5 (Herbicidal ratio of 90% or more (almost completely withered))	5 (Herbicidal ratio of 90% or more (almost completely withered))	1 (Herbicidal ratio of 5% or higher and lower than 20%)	2 (Herbicidal ratio of 20% or higher and lower than 40%)	3 (Herbicidal ratio of 40% or higher and lower than 70%)	4 (Herbicidal ratio of 70% or higher and lower than 90%)						
CCOC(=O)C(C(=O)CC1CC1)C1CC(O)=C(c2c(C)cc(C)cc2C)C1=O (stereo not drawn) [2-025]	0 (Herbicidal ratio of 5% or lower (almost no effect))	1 (Herbicidal ratio of 5% or higher and lower than 20%)	4 (Herbicidal ratio of 70% or higher and lower than 90%)													4 (Herbicidal ratio of 70% or higher and lower than 90%)	4 (Herbicidal ratio of 70% or higher and lower than 90%)	4 (Herbicidal ratio of 70% or higher and lower than 90%)	3 (Herbicidal ratio of 40% or higher and lower than 70%)	0 (Herbicidal ratio of 5% or lower (almost no effect))	J: Alopecurus myosuroides, herbicidal effect grade (Alopecurus myosuroides [2]; [5]): 0 (Herbicidal ratio of 5% or lower (almost no effect)); d: soybean, effect on crop grade (soybean; [5]): 0 (Herbicidal ratio of 5% or lower (almost no effect)); b: directly sowed rice plant, effect on crop grade (rice; [5]): 5 (Herbicidal ratio of 90% or more (almost completely withered)); f: beet, effect on crop grade (beet; [5]): 0 (Herbicidal ratio of 5% or lower (almost no effect)); Q: Galium spurium, herbicidal effect grade (Galium spurium): 0 (Herbicidal ratio of 5% or lower (almost no effect)); R: Veronica persica, herbicidal effect grade (Veronica persica): 0 (Herbicidal ratio of 5% or lower (almost no effect)); g: rapeseed, effect on crop grade (rapeseed): 3 (Herbicidal ratio of 40% or higher and lower than 70%)
C=CCN(CC=C)C(=O)OC1=C(c2c(C)cc(C)cc2C)C(=O)C(CC(C)=NOC)C1 (stereo not drawn) [1-153]	3 (Herbicidal ratio of 40% or higher and lower than 70%)	5 (Herbicidal ratio of 90% or more (almost completely withered))	5 (Herbicidal ratio of 90% or more (almost completely withered))	3 (Herbicidal ratio of 40% or higher and lower than 70%)	0 (Herbicidal ratio of 5% or lower (almost no effect))	1 (Herbicidal ratio of 5% or higher and lower than 20%)	0 (Herbicidal ratio of 5% or lower (almost no effect))	5 (Herbicidal ratio of 90% or more (almost completely withered))	5 (Herbicidal ratio of 90% or more (almost completely withered))	5 (Herbicidal ratio of 90% or more (almost completely withered))	5 (Herbicidal ratio of 90% or more (almost completely withered))	0 (Herbicidal ratio of 5% or lower (almost no effect))	3 (Herbicidal ratio of 40% or higher and lower than 70%)	0 (Herbicidal ratio of 5% or lower (almost no effect))	4 (Herbicidal ratio of 70% or higher and lower than 90%)						
CON=C(C)CC1CC(OC(=O)c2ccc(S(C)(=O)=O)c(C(=O)OC)c2Cl)=C(c2c(C)cc(C)cc2C)C1=O (stereo not drawn) [1-162]	4 (Herbicidal ratio of 70% or higher and lower than 90%)	5 (Herbicidal ratio of 90% or more (almost completely withered))	5 (Herbicidal ratio of 90% or more (almost completely withered))	5 (Herbicidal ratio of 90% or more (almost completely withered))	0 (Herbicidal ratio of 5% or lower (almost no effect))	5 (Herbicidal ratio of 90% or more (almost completely withered))	0 (Herbicidal ratio of 5% or lower (almost no effect))									5 (Herbicidal ratio of 90% or more (almost completely withered))	5 (Herbicidal ratio of 90% or more (almost completely withered))	5 (Herbicidal ratio of 90% or more (almost completely withered))	5 (Herbicidal ratio of 90% or more (almost completely withered))	4 (Herbicidal ratio of 70% or higher and lower than 90%)	Q: Galium spurium, herbicidal effect grade (Galium spurium): 4 (Herbicidal ratio of 70% or higher and lower than 90%); R: Veronica persica, herbicidal effect grade (Veronica persica): 3 (Herbicidal ratio of 40% or higher and lower than 70%); g: rapeseed, effect on crop grade (rapeseed): 4 (Herbicidal ratio of 70% or higher and lower than 90%)
CON=C(C)CC1CC(OC(=O)N2CCCCC2)=C(c2c(C)cc(C)cc2C)C1=O (stereo not drawn) [1-151]	3 (Herbicidal ratio of 40% or higher and lower than 70%)	4 (Herbicidal ratio of 70% or higher and lower than 90%)	5 (Herbicidal ratio of 90% or more (almost completely withered))	5 (Herbicidal ratio of 90% or more (almost completely withered))	0 (Herbicidal ratio of 5% or lower (almost no effect))	1 (Herbicidal ratio of 5% or higher and lower than 20%)	0 (Herbicidal ratio of 5% or lower (almost no effect))	5 (Herbicidal ratio of 90% or more (almost completely withered))	5 (Herbicidal ratio of 90% or more (almost completely withered))	5 (Herbicidal ratio of 90% or more (almost completely withered))	5 (Herbicidal ratio of 90% or more (almost completely withered))	0 (Herbicidal ratio of 5% or lower (almost no effect))	0 (Herbicidal ratio of 5% or lower (almost no effect))	1 (Herbicidal ratio of 5% or higher and lower than 20%)	4 (Herbicidal ratio of 70% or higher and lower than 90%)						
